From patent US6747041B1, “Heterocyclic dicarboxylic acid diamide derivatives, agricultural/horticultural insecticides and method of using the same” (Nihon Nohyaku Co., Ltd., priority 1999, dated 2004)

## Cc1cc(C(F)(C(F)(F)F)C(F)(F)F)ccc1NC(=O)c1nn(-c2ccccc2)c(Br)c1C(=O)NC(C)C
  melting point: 164 to 166 °C

## Cc1cc(C(F)(C(F)(F)F)C(F)(F)F)ccc1NC(=O)c1ccc[n+]([O-])c1C(=O)NC(C)C
  melting point: 108 to 110 °C
